The target in one assay is Bovine LOX (Bos taurus (Bovine), UniProt P33072). The experiment in a line: LOX inhibition, peroxidase-coupled Amplex Red amine oxidase assay. The assay is classed as biochemical. As to conditions: 30 min preincubation at 37° C., putrescine substrate. In outline: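 Bovine LOX in 1.2 M urea, 50 mM sodium borate pH 8.2 with 1 μM mofegiline and 0.5 mM pargyline; putrescine at twice KM (e.g. 20 mM for LOX) with Amplex Red/HRP. Fluorescence (ex 565/em 590 nm) read kinetically over 30 min at 37–45 °C; IC50 from slopes.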
Chain of Bovine LOX (P33072 170-418): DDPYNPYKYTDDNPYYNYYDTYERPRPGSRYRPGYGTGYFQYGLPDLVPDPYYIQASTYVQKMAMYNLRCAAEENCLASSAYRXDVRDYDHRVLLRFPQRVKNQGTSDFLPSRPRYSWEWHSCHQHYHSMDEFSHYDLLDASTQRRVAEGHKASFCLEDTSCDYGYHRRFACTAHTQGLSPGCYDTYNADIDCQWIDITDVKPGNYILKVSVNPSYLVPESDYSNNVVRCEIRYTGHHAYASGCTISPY

In a further assay the target is Recombinant human MAO-B (Homo sapiens (Human), UniProt P27338). The experiment in a line: Inhibition of human recombinant MAO-B. The assay is classed as biochemical. As to conditions: benzylamine 100 μM. In outline: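 Recombinant human MAO-B used as enzyme source (0.06 mg/mL, stated concentration). Run as for the human SSAO/VAP-1 assay, except benzylamine substrate at 100 μM.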
Chain of Recombinant human MAO-B (P27338 whole entry): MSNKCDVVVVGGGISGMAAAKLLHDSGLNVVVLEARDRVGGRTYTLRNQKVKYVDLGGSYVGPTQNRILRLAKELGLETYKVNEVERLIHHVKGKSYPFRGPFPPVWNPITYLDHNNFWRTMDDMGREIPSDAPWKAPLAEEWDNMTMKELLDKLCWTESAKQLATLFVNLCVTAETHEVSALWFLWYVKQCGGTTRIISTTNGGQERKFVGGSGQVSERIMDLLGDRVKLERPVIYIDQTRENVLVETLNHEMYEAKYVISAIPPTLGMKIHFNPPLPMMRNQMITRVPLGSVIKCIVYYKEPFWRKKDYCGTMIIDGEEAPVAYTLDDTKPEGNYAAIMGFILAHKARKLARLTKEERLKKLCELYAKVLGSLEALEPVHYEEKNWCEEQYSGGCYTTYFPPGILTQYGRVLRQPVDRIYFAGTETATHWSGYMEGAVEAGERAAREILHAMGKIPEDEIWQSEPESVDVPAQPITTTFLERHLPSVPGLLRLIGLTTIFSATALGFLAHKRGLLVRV

Another assay concerns the target Human LOXL2 (Homo sapiens (Human), UniProt Q9Y4K0). Description: LOXL2 inhibition, peroxidase-coupled Amplex Red amine oxidase assay. The note with it: 30 min preincubation at 37° C., putrescine substrate. The assay is classed as biochemical. The procedure, abridged: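 Enzyme in 1.2 M urea, 50 mM sodium borate pH 8.2 with 1 μM mofegiline and 0.5 mM pargyline, preincubated 30 min at 37° C with compound (11-point CRC). Putrescine at twice KM (10 mM for LOXL2) with Amplex Red/HRP; fluorescence (ex 565, em 590) read kinetically 30 min; IC50 from slopes.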

Assay [1] has as its target human recombinant SSAO/VAP-1 (Homo sapiens (Human), UniProt Q16853). Description: Inhibition of human recombinant SSAO/VAP-1 amine oxidase activity. The assay is classed as biochemical. As to conditions: 30 min preincubation at 37° C., 600 μM benzylamine. In outline:
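Purified SSAO/VAP-1 (residues 34-763, expressed in CHO Lec 8 cells; 0.25 μg/mL) preincubated 30 min at 37° C with compound in 0.1 M sodium phosphate pH 7.4. Reaction mix of 600 μM benzylamine, 120 μM Amplex Red and 1.5 U/mL HRP added; fluorescence (ex 565/em 590 nm) read every 2.5 min for 30 min; IC50 from kinetic slopes over 4-11 point curves.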

The subject of assay [2] is primary fibroblasts from confirmed cases of IPF. Description: Collagen cross-link formation in in vitro fibroblastic foci model of IPF. The assay is classed as cell-based, human. As to conditions: TGF-β1 stimulated foci, six weeks culture, FIGS. 7a and 7b. From the text: The lung tissue of patients with idiopathic pulmonary fibrosis (IPF) is characterised by dense collections of myofibroblasts and extracellular matrix (ECM) termed ‘fibroblastic foci’. Using a novel in vitro model of fibroblastic foci (Jones et al., AJRCCM 191; 2015:A4912) the formation of lysyl oxidase (LOX) mediated collagen cross-links and the effects of the nonselective LOX inhibitor β-aminopropionitrile (BAPN) as well lysyl oxidase like-2 (LOXL2)-selective inhibitors were investigated.
Cultures of primary fibroblasts were grown out from clinical diagnostic biopsies of fibrotic lung and stored in liquid nitrogen. […]
To quantify collagen cross-links (Robins Biochem Soc Trans 2007; 35(5): 849-852; Saito et al Anal. Biochem. 1997; 253: 26-32; Sims, Avery & Bailey Methods in Molecular Biology 2000; vol 139: 11-26), cultures were treated with potassium borohydride to stabilise the reducible immature cross-links, and hydrolysed in 6N HCl at 100° C. for 16 hr. Total collagen content was assessed by hydroxyproline assay. Immature cross-links were assessed by LC/MS/MS and mature pyridinoline cross-links by ELISA. Cross-link data is expressed as moles of cross-link per mole collagen.

Experimental findings from patent publication US10717733B2, “Haloallylamine indole and azaindole derivative inhibitors of lysyl oxidases and uses thereof” (PHARMAXIS LTD., priority 2016, dated 2020) are described below.

Structures can show the parent of a compound that is named as a salt.

Chain of Human LOXL2 (Q9Y4K0 26-774): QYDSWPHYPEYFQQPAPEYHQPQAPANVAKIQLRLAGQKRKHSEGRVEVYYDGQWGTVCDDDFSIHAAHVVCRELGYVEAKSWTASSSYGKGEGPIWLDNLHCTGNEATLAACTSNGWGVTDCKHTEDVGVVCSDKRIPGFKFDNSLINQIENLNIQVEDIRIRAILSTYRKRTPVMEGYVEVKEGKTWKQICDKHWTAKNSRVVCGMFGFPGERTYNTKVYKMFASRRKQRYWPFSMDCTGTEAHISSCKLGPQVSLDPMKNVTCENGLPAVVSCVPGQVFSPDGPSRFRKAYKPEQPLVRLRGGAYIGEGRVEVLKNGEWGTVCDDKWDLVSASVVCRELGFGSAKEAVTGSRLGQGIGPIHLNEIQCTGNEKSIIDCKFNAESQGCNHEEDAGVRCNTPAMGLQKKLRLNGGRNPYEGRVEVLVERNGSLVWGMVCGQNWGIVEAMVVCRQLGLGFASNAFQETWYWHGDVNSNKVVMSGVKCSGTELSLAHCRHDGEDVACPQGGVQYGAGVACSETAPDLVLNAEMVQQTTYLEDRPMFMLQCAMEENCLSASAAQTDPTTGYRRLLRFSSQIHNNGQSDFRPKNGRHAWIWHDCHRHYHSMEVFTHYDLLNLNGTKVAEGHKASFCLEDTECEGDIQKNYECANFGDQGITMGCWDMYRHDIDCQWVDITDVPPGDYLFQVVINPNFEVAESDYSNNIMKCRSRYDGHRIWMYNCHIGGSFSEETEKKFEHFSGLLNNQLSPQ
Chain of human recombinant SSAO/VAP-1 (Q16853 34-763): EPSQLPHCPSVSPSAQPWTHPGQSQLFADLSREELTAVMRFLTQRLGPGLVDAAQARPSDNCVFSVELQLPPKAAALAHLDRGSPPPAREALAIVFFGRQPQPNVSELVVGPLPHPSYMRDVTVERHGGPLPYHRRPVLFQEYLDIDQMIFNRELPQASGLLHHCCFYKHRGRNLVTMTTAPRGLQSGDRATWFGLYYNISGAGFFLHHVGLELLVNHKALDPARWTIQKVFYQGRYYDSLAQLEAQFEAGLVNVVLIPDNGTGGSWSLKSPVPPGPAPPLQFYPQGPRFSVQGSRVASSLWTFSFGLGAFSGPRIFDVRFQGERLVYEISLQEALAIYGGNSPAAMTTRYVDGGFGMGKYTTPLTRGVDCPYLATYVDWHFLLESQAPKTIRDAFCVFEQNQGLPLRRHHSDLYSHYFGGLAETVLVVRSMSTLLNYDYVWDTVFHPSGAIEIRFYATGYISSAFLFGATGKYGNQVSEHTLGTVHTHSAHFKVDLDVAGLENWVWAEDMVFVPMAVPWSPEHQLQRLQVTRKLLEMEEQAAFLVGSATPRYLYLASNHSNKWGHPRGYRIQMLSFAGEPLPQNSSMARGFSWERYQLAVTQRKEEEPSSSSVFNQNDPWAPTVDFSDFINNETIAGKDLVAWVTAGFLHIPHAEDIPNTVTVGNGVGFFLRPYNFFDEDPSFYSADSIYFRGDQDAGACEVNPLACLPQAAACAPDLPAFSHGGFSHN

What is called IC50 is the concentration that inhibits the measured activity by half. For the molecule `N#CCCN` [BAPN, β-aminopropionitrile, reference compound], the IC50 was above 1 µM on Bovine LOX, above 3 µM on Recombinant human MAO-B, below 1 µM on Human LOXL2 and above 3 µM in assay [1]. Moreover, the “collagen cross-link formation (immature and mature cross-links)” value in assay [2] was “reduced cross-link formation in a concentration dependent manner”.
Consider `Cc1c(-c2cccc(S(=O)(=O)N(C)C)c2)c2ccccc2n1C/C(F)=C/CN` [Compound 2, (Z)-3-(1-(4-amino-2-fluorobut-2-en-1-yl)-2-methyl-1H-indol-3-yl)-N,N-dimethylbenzenesulfonamide], for which the IC50 was above 0.3 µM against Bovine LOX, above 3 µM on Recombinant human MAO-B, below 0.3 µM against Human LOXL2 and above 3 µM in assay [1].
With `COCc1ccc2c(n1)c(-c1cccc(S(=O)(=O)N(C)C)c1)c(C)n2C/C(F)=C/CN` [Compound 103, (Z)-3-(1-(4-amino-2-fluorobut-2-en-1-yl)-5-(methoxymethyl)-2-methyl-1H-pyrrolo[3,2-b]pyridin-3-yl)-N,N-dimethylbenzenesulfonamide], the IC50 against Bovine LOX is above 0.3 µM; at Recombinant human MAO-B it was above 3 µM; on Human LOXL2, below 0.3 µM; in assay [1], above 3 µM.
On to `Cc1c(-c2cccc(S(=O)(=O)N(C)C)c2)c2nc(C(=O)NC(C)C)ccc2n1C/C(F)=C/CN` [Compound 45, (Z)-1-(4-amino-2-fluorobut-2-en-1-yl)-3-(3-(N,N-dimethylsulfamoyl)phenyl)-N-isopropyl-2-methyl-1H-pyrrolo[3,2-b]pyridine-5-carboxamide], for which the IC50 against Bovine LOX is above 0.3 µM; on Recombinant human MAO-B it was above 3 µM; on Human LOXL2, below 0.3 µM; in assay [1], above 3 µM.
Regarding `Cc1c(-c2ccc(S(=O)(=O)N(C)C)cc2)c2ccccc2n1C/C(F)=C/CN` [Compound 3, (Z)-4-(1-(4-amino-2-fluorobut-2-en-1-yl)-2-methyl-1H-indol-3-yl)-N,N-dimethylbenzenesulfonamide], the IC50 at Bovine LOX was above 0.3 µM; on Recombinant human MAO-B it was above 3 µM; against Human LOXL2, below 0.3 µM; in assay [1] it was above 3 µM.
As for `Cc1c(-c2cccc(S(=O)(=O)N(C)C)c2)c2ccncc2n1C/C(F)=C/CN` [Compound 32, (Z)-3-(1-(4-amino-2-fluorobut-2-en-1-yl)-2-methyl-1H-pyrrolo[2,3-c]pyridin-3-yl)-N,N-dimethylbenzenesulfonamide Dihydrochloride], the IC50 is above 0.3 µM at Bovine LOX, above 3 µM at Recombinant human MAO-B, below 0.3 µM at Human LOXL2 and above 3 µM in assay [1].
Take `Cc1c(-c2cccc(S(=O)(=O)N(C)C)c2)c2ccc(C(=O)O)cc2n1C/C(F)=C/CN` [Compound 9, (Z)-1-(4-amino-2-fluorobut-2-en-1-yl)-3-(3-(N,N-dimethylsulfamoyl)phenyl)-2-methyl-1H-indole-6-carboxylic acid]: the IC50 was above 0.3 µM at Bovine LOX, above 3 µM at Recombinant human MAO-B, below 0.3 µM at Human LOXL2 and above 3 µM in assay [1].
For `Cc1c(-c2cccc(S(=O)(=O)N(C)C)c2)c2cc(C#N)ccc2n1C/C(F)=C/CN` [Compound 51, (Z)-3-(1-(4-amino-2-fluorobut-2-en-1-yl)-5-cyano-2-methyl-1H-indol-3-yl)-N,N-dimethylbenzenesulfonamide], the IC50 is above 0.3 µM on Bovine LOX, above 3 µM on Recombinant human MAO-B, below 0.3 µM at Human LOXL2 and above 3 µM in assay [1].
`CCOC(=O)c1ccc2c(n1)c(-c1cccc(S(=O)(=O)N(C)C)c1)c(C)n2C/C(F)=C/CN` [Compound 42, (Z)-ethyl 1-(4-amino-2-fluorobut-2-en-1-yl)-3-(3-(N,N-dimethylsulfamoyl)phenyl-2-methyl-1H-pyrrolo[3,2-b]pyridine-5-carboxylate, Dihydrochloride]: the IC50 against Bovine LOX is above 0.3 µM; at Recombinant human MAO-B, above 3 µM; on Human LOXL2 it was below 0.3 µM; in assay [1], above 3 µM.
